Experiments:
[1] = solubility in methanol adjusted to pH 9.5 with triethylamine; format: physicochemical; settings: pH adjusted to 9.5 with triethylamine
solubility in methanol = format: physicochemical
Description: The complexes of the present invention are less soluble in methanol than amphotericin B. Forty mg of the complexes of the present invention are soluble in 750 ml of methanol, whereas 100 mg of amphotericin B are soluble in 750 ml of methanol.

Amphotericin B-Calcium-Oxalic Acid Complex [Example 1]
extent of solubility in methanol at pH 9.5 ([1]; 100 mg added to 80 ml of methanol): 35% | extent of solubilization in methanol (solubility in methanol; 100 mg added to 750 ml of methanol): 40%

C[C@@H]1[C@H](O)[C@@H](C)/C=C/C=C/C=C/C=C/C=C/C=C/C=C/[C@H](O[C@@H]2O[C@H](C)[C@@H](O)[C@H](N)[C@@H]2O)C[C@@H]2O[C@](O)(C[C@@H](O)C[C@@H](O)[C@H](O)CC[C@@H](O)C[C@@H](O)CC(=O)O[C@H]1C)C[C@H](O)[C@H]2C(=O)O [amphotericin B]
solubility in methanol at pH 9.5 (in words) ([1]; 100 mg in 80 ml of methanol): completely soluble | solubility in methanol (in words) (solubility in methanol; 100 mg in 750 ml of methanol): completely soluble | amount soluble in methanol (solubility in methanol; in 750 ml of methanol): 100 mg

From patent US4054734A, “Amphotericin complexes containing citric acid and calcium” (priority 1976, dated 1977)
